Measurements published in patent US20240292836A1, “AGENTS FOR REPELLING, KNOCKING DOWN, AND/OR KILLING BLOOD-SUCKING ARTHROPODS AND USES THEREOF” (The United States of America, as represented by the …, priority 2023, published 2024).

Legend:
[1] = system: female Aedes aegypti adults; experiment: High-throughput in vitro screening assay, spatial repellency; assay type: in vivo; details: for 30-minute RD50 compared with that of DEET: 30 minutes, α = 0.05; for RD50 (30 min), half-repellent dose / RD50 (60 min), half-repellent dose: dose per filter paper surface area, 95% CI; for spatial repellency (in words): highest-tested dose of 100 μg/cm^2
Excerpt: A high-throughput screening method for evaluating spatial repellency and vapor toxicity, described by Jiang S., et al. (2019, “High-Throughput Screening Method for Evaluating Spatial Repellency and Vapour Toxicity to Mosquitoes,” Med. Vet. Entomol. 33: 388-396), was used for this study. As shown in FIG. 2 of Jiang S., et al., assay tubes were constructed by covering 12.5 cm glass tubes on one side with netting secured by a rubber band. The tubes were used in horizontal orientation. Adult mosquitos 2-7 days old were anesthetized on ice for approximately 5 minutes and 16 females were transferred to each tube. The other end of the tube was then closed with netting and a rubber band.
The conical ends of 50 mL centrifuge tubes (Eppendorf, Enfield, Connecticut, USA) were cut at approximately the 10 mL mark to create the end caps for the assay tubes. […] For repellency tests, filter papers for the “untreated” side of the assay tube received pure acetone, whereas filter papers for the “treated” side received acetone solution containing a dissolved compound of interest. For knockdown tests, both filter papers were treated with acetone solution containing one or more compounds of interest. Acetone on both filter papers served as negative controls.
For repellency assays, filter papers were given 10 minutes of evaporation time before being placed into the end caps with forceps (Jiang S., et al. 2019, Supra). For knockdown assays, filter papers were given 5 minutes of evaporation time before being placed into the end caps. […] Assay tubes were capped such that the cap securely overlapped the glass but approximately 5 mm of space was left between the netting and the filter paper so that the mosquitos could not contact the filter paper.
Assay tubes were placed on a white polystyrene platform with wooden sticks glued flatly across it to prevent the tubes from rolling. A straight black line was drawn down the center of the platform and assay tubes were centered on the line at the beginning of the tests. In repellency assays, data were collected at 15, 30, and 60 minutes after the end caps were placed on the assay tubes. Assay tubes were not disturbed for the entire 60 minutes. At each time point, the number of mosquitos that remained on the treated side was visually assessed and recorded. The treated side was alternated with each set of tests. For repellency tests, DEET at a dose of 100 μg/cm^2 served as the positive control.
For the high-throughput in vitro screening assays, analyses were conducted with R version 4.2.2 statistical software (R Core Team, 2022, “R: a language and environment for statistical computing. R foundation for statistical computing,” Vienna, Austria). Concentrations were calculated in terms of filter paper surface area (μg/cm^2) for repellency assays and in terms of assay tube volume (μg/cm^3) for knockdown assays.
Half-repellent (RD50), half-knockdown (KD50), and half-lethal (LD50) doses were calculated from dose-response curves (DRCs) obtained by four-parameter log-logistic equation models generated using the drc package (Dose Response Curve Analyses Software; Ritz C. et al., 2015, “Dose-response analysis using R,” PLOS ONE 10: e0146021). For repellency test analysis, the upper and lower asymptotes for the proportion of mosquitos remaining on the treated side were fixed at 0.5 and 0, respectively. For KD and mortality test analysis, the upper and lower asymptotes for the proportion of mosquitos knocked down or killed were fixed at 1.0 and 0, respectively. To determine whether RD50, KD50, or LD50 values differed across compounds at each timepoint, a joint model assuming different values for each compound and a null model that assumed a single value for all compounds were compared with a likelihood ratio test.

[2] = system: female Aedes aegypti adults; experiment: Arm-in-cage cloth-patch in vivo assay (topical repellency); details: for Minimum Effective Dose (MED): Mean ± SEM, lowest dosage with five or fewer bites through repellent-treated cloth in 1-minute exposure, at least three volunteers; for topical repellency (in words): initial screening dose of 0.187 mg/cm^2; for MED, times lower than the initial screening dose: relative to initial screening dose of 0.187 mg/cm^2
Excerpt: Arm-in-Cage Test Cloth-Patch in vivo Assay Pyrethroid-susceptible yellow fever mosquitoes Ae. aegypti (Orlando strain) were reared in the United States Department of Agriculture Mosquito and Fly Research Unit in Gainesville, FL under standard protocols. Three to seven-day-old, starved female mosquitoes were collected using a “draw box” (Posey, K. and Schreck, C. E, 1981, “An airflow apparatus for selecting female mosquitoes for use in repellent and attraction studies” Mosquito News 41: 566-568; US. Department of Agriculture, 1977, Repellent activity of compounds submitted by Walter Reed Army Institute of Research. Part 1. Protection time and minimum effective dosage against Aedes aegypti mosquitoes. Tech. Bull. No. 1549) and were placed in cages at an approximate density 200 mosquitoes/cage. Repellency was determined according to a standard protocol (Bernier, U. R., et al, 2022. “Evaluation and application of repellent-treated uniform/clothing and textiles against vector mosquitoes,” In Advances in Arthropod Repellents (pp. 69-94). Academic Press) and reported as the minimum effective dosage (MED). […] A nylon leg stocking was placed over the arm to prevent direct contact of the repellent-treated cloth patch with the skin. […]. Cloth was treated by placing a rolled bandage (50 cm^2) into each vial containing 1 mL of solution and allowing the patch to absorb the solution completely. The cloth was taped over a 4 by 9-cm opening cut into a vinyl plastic sheet that was draped around the volunteers' arms and taped in place. The cloth was air-dried approximately 15 min before conducting each test. The work reported here is an average of the MED for at least three volunteers. Each volunteer covered his or her arm with a nylon stocking to avoid contact between the skin and the treated cloth and wore a rubber glove to prevent mosquito bites on the hand.
. The minimum effective dose (MED) was determined for each repellent and subject, defined as the lowest concentration that prevents biting). MEDs from each subject were pooled and reported as the average among all replicates/subjects with SEM. A minimum of 3 replicates were performed on at least three human subjects. Written informed consent was obtained for all human subjects used in this study in accordance with IRB protocol #20193320, as approved by the WCG™ IRB.
Statistical Analyses: Student's T-test was used to compare the means between tested compound and DEET and Icaridin in the arm-in-cage in vivo assay and neurophysiological study.

[3] = system: female Aedes aegypti adults; experiment: High-throughput in vitro screening assay, knockdown and mortality; details: for KD50 (30 min), half-knockdown dose / KD50 (60 min), half-knockdown dose: dose per assay tube volume, 95% CI; for time at which knockdown began: FIG. 6A, 6B, 6D; for knockdown and mortality activities (in words): in vivo

Row | SMILES | 30-minute RD50 compared with that of DEET [1] | Minimum Effective Dose (MED) [2] | KD50 (30 min), half-knockdown dose [3] | KD50 (60 min), half-knockdown dose [3] | RD50 (30 min), half-repellent dose [1] | RD50 (60 min), half-repellent dose [1] | spatial repellency (in words) [1] | topical repellency (in words) [2] | time at which knockdown began [3] | knockdown and mortality activities (in words) [3] | MED, times lower than the initial screening dose [2]
1 | COC(=O)c1ccccc1[N+](=O)[O-] [M2NB, methyl 2-nitrobenzoate] | not significantly different from that of DEET | 0.025 mg/cm^2 | >7 µg/mL | >7 µg/mL | – | – | – | – | – | – | –
2 | COC(=O)c1ccc(OC)cc1 [M4MOB, methyl 4-methoxybenzoate] | – | >0.187 mg/cm^2 | – | – | >100 μg/cm^2 | >100 μg/cm^2 | did not show spatial repellencies | did not show any topical repellencies | – | – | –
3 | COC(=O)c1ccc(C(F)(F)F)cc1 [M4tFMB, methyl 4-(trifluoromethyl)benzoate] | – | >0.187 mg/cm^2 | – | – | >100 μg/cm^2 | >100 μg/cm^2 | did not show spatial repellencies | did not show any topical repellencies | – | – | –
4 | COC(=O)c1ccccc1N [MA, methyl anthranilate] | significantly lower than that of DEET | 0.027 mg/cm^2 | – | – | 11.84 μg/cm^2 | – | – | – | – | – | –
5 | COC(=O)c1ccccc1NC(C)=O [MAcA, methyl N-acetylanthranilate] | – | 0.101 mg/cm^2 | – | – | >100 μg/cm^2 | >100 μg/cm^2 | did not show spatial repellencies | demonstrated repellency at doses lower than 0.187 mg/cm^2 on at least one test subject | – | – | –
6 | COC(=O)c1ccccc1 [MB, Methyl benzoate] | – | >0.187 mg/cm^2 | – | – | >100 μg/cm^2 | >100 μg/cm^2 | did not show spatial repellencies | did not show any topical repellencies | – | – | –
7 | O=C(Oc1ccccc1)c1ccccc1 [PhB, phenyl benzoate] | – | >0.187 mg/cm^2 | – | – | >100 μg/cm^2 | >100 μg/cm^2 | did not show spatial repellencies | did not show any topical repellencies | – | – | –
8 | O=C(OCCc1ccccc1)c1ccccc1 [PhEB, phenethyl benzoate] | – | >0.187 mg/cm^2 | – | – | >100 μg/cm^2 | >100 μg/cm^2 | did not show spatial repellencies | did not show any topical repellencies | – | – | –
9 | C=COC(=O)c1ccccc1 [VB, vinyl benzoate] | – | >0.187 mg/cm^2 | – | – | >100 μg/cm^2 | >100 μg/cm^2 | did not show spatial repellencies | did not show any topical repellencies | – | – | –
10 | CC(C)COC(=O)c1ccccc1 [iBB, iso-butyl benzoate] | not significantly different from that of DEET | >0.187 mg/cm^2 | 5.26 µg/mL | 5.29 µg/mL | – | – | – | did not show any topical repellencies | 5 min | exhibited considerable knockdown and mortality activities | –
11 | CC(C)CCOC(=O)c1ccccc1 [iPeB, iso-pentyl benzoate] | not significantly different from that of DEET | >0.187 mg/cm^2 | 3.71 µg/mL | 3.40 µg/mL | – | – | – | did not show any topical repellencies | 5 min | exhibited considerable knockdown and mortality activities | –
12 | CC(C)OC(=O)c1ccccc1 [iPrB, iso-propyl benzoate] | – | >0.187 mg/cm^2 | – | – | >100 μg/cm^2 | >100 μg/cm^2 | did not show spatial repellencies | did not show any topical repellencies | – | – | –
13 | CCCCOC(=O)c1ccc(O)cc1 [nB4HB, n-butyl 4-hydroxybenzoate] | – | >0.187 mg/cm^2 | – | – | >100 μg/cm^2 | >100 μg/cm^2 | did not show spatial repellencies | did not show any topical repellencies | – | – | –
14 | CCCCOC(=O)c1ccccc1NC=O [nBFA, n-Butyl N-formylanthranilate] | – | 0.0075 mg/cm^2 | – | – | >100 μg/cm^2 | >100 μg/cm^2 | did not show any spatial repellencies | – | – | – | 25 times
15 | CCCOC(=O)c1ccc(O)cc1 [nPr4HB, n-propyl 4-hydroxylbenzoate] | – | >0.187 mg/cm^2 | – | – | >100 μg/cm^2 | >100 μg/cm^2 | did not show spatial repellencies | did not show any topical repellencies | – | – | –
16 | CCCOC(=O)c1ccccc1 [nPrB, n-propyl benzoate] | – | 0.250 mg/cm^2 | – | – | >100 μg/cm^2 | >100 μg/cm^2 | did not show spatial repellencies | demonstrated repellency at doses lower than 0.187 mg/cm^2 on at least one test subject | – | – | –
17 | CCCOC(=O)c1ccccc1NC=O [nPrFA, n-Propyl N-formylanthranilate] | – | 0.0028 mg/cm^2 | – | – | >100 μg/cm^2 | >100 μg/cm^2 | did not show any spatial repellencies | – | – | – | 64 times
